# Laboratory results taken from patent EP4707279A1, “SUBSTITUTED TRICYCLIC HETEROCYCLIC COMPOUND AS PHARMACEUTICAL FOR TREATMENT OR PREVENTION OF COVID-19” (priority 2023, dated 2024).
# Tested on: SARS-CoV-2
# Experiment: CPE inhibition assay, anti-SARS-CoV-2 virus activity in vitro (Test Example 4)
# Assay type: cell-based
# Settings: CPE inhibition at 10 µM; VeroE6-TMPRSS2 cells; MOI 0.01; third day post infection; average of three tests
row,Molecule,Anti SARS-CoV-2 activity
1,"Ethyl (6R,9S,11aR,11bR)-1,3-dibenzyl-11b-hydroxy-6-methyl-2,4,7-trioxodecahydro-2H-pyrrolo[2',1':3,4]pyrazino[1,2-a] [1.3.5]triazine-9-carboxylate [Compound 2A]",C (less than 1%)
2,"(6R,9S,11aR,11bR)-1,3-bis(furan-2-ylmethyl)-11b-hydroxy-6-isopropyl-N-(naphthalen-2-ylmethyl)-2,4,7-trioxodecahydro-2H-pyrrolo[2',1':3,4]pyridazin e[1,2-a] [1,3,5]triazine-9-carboxamide [Compound 28D]",A (a CPE inhibition effect of 5% or more)
3,"(6 R,9 S,11aR,11bR)-1,3-Dibenzyl-N-(bicyclo[1,1,1]penta n-1-yl) 11b-Hydroxy-6-isopropyl-2,4,7-trioxodecahydro- 2H-pyrrolo [2"",1"":3,4]pyrazino[ 1,2-a][1,3,5] triazine-9-carboxamide [Compound 3I]",A (a CPE inhibition effect of 5% or more)
4,"(6R,9S,11aR,11bR)-1,3-Dibenzyl-11b-hydroxy-6-isopropyl-2,4,7-trioxo-phenyl-deca-hydro-2H-pyrrolo [2',1':3,4]pyrazino[1, 2-a][1,3,5]triazine-9-carboxamide [Compound 3G]",A (a CPE inhibition effect of 5% or more)
5,"O=C(NCc1ccc2ccccc2c1)[C@@H]1CC[C@H]2N1C(=O)[C@@H](Cc1ccccc1)N1C(=O)N(CC3CCCC3)C(=O)N(CC3CCCC3)[C@]21O [Compound 17D, (6R,9S,11aR,11bR)-6-Benzyl-1,3-bis (cyclopentylmethyl)-11b-h ydroxy-N-(naphthalen-2-ylmethyl)-2,4,7-trioxodecahydro-2H-pyrrolo[2',1':3,4] pyridazino[1,2-a][1,3,5] triazine-9-carboxamide]",A (a CPE inhibition effect of 5% or more)
6,"Cc1noc([C@@H]2CC[C@H]3N2C(=O)[C@@H](Cc2ccccc2)N2C(=O)N(Cc4cccs4)C(=O)N(Cc4cccs4)C32O)n1 (stereo partly drawn) [Compound 18I, (6R,9S,11aR)-6-benzyl-11b-hydroxy-9-(3-methyl-1,2,4-oxadiazol-5-yl)-1,3-bis(thiophen-2-ylmethyl)hexahydro-2H-pyrrolo[2',1':3,4]pyridazine[1,2-a][1,3,5]triazine-2,4,7(3H,6H)-trione]",B (a CPE inhibition effect of less than 5% but 1% or more)
7,"(6R,9S,11aR)-11b-Hydroxy-6-isopropyl-N-(naphthalen-2-ylmethyl)-2,4,7-trioxo-1,3-bis(thien-2-ylmethyl)decahydro- 2H-pyrrolo[2',1':3,4] pyridazine[1,2-a][1,3,5] triazine-9-carboxamide [Compound 27D]",A (a CPE inhibition effect of 5% or more)
8,"(6S,9R,11aS,11bS)-1,3,6-Tribenzyl-11b-hydroxy-N-(naphthalen-2-ylmethyl)-2,4 ,7-trioxo-2H-pyrrolo [2',1':3,4]pyrazino [1,2-a][1,3,5]triazine-9-carboxamide [Compound 4D]",A (a CPE inhibition effect of 5% or more)
9,"CC(C)[C@@H]1C(=O)N2[C@H](C3=NCc4cn(-c5c[nH]c6ccccc56)c5cccc3c45)CC[C@@H]2[C@@]2(O)N(Cc3ccccc3)C(=O)N(Cc3ccccc3)C(=O)N12 [Compound 3H, (6R,95,11aR,11bR)-9-(1-((1H-indole-3-yl))-1,3-dihydropyrrolo[4,3,2-de]isoquinolin-5-yl)-1,3-dibenzyl-11b-hydroxy-6-isopropylhexahydro-2H-pyrrolo [2',1':3,4]pyridazine [1,2-a][1,3,5] triazine-2,4,7 (3H. 6H)-trione]",A (a CPE inhibition effect of 5% or more)
10,"CC(C)OC(=O)[C@@H]1CC[C@H]2N1C(=O)[C@@H](Cc1ccccc1)N1C(=O)N(Cc3cccs3)C(=O)N(Cc3cccs3)[C@]21O [Compound 18G, Isopropyl (6R,9S,11aR,11bR)-6-benzyl-11b-hydroxy-2,4,7-trioxo-1,3-bis(thiophen-2-ylmethyl)decahydro-2H-pyrrolo [2',1':3,4]pyridazine[1,2-a][1,3,5]triazine-9-carboxylate]",A (a CPE inhibition effect of 5% or more)
11,"(6R,9S,11aR,11bR)-1,3-Dibenzyl-9-(4-fluoroisoindolin-2-carbonyl)-11b-hydroxy-6-isopropylhexahydro -2H-pyrrolo[2',1':3,4]pyri dazino[1,2-a][1,3,5] triazine-2.4. 7(3H.6H)-trione [Compound 3J]",A (a CPE inhibition effect of 5% or more)
12,"(6S,13aS)-1,3,6-tribenzyl-13b-hydroxy-1,13,13a,13b-tetrahydro-2H-[1,3,5] triazino[2',1':3,4]pyraz ino[1,2-a]indole-2,4.7(3H,6H)-trione [Compound 24A]",C (less than 1%)
13,"(6S,9R,11aS,11bS)-1,3-Dibenzyl-11b-hydroxy-6-isopropyl-N-(naphthalen-2^-ylmethyl)-2,4,7-trioxodecahydro-2H-pyrrolo[2',1':3,4]pyrazino[ 1,2-a][1,3,5]triazine-9-carboxamide [Compound 26D]",A (a CPE inhibition effect of 5% or more)
14,"O=C1[C@@H](Cc2ccccc2)N2C(=O)N(Cc3ccccc3)C(=O)N(Cc3ccccc3)[C@]2(O)[C@H]2CC[C@@H](CNCc3ccc4ccccc4c3)N12 [Compound 1F, (6R,9S,11aR,11bR)-1,3,6-Tribenzyl-11b-hydroxy-9-(((naphthalen-2-ylmethyl)amino)methyl)hexahydro-2H-pyrrolo[2',1':3,4]pyridazine[1,2-a][1,3,5]triazine-2,4,7(3H,6H)-trione]",C (less than 1%)
15,"Ethyl (6R.9S.11aR.11b R) 6 benzyl 11b-hydroxy 2,4,7 trioxo-1.3 bis(thiophen 2 ylm ethyl)decahydro-2H-pyrrolo[2',1':3,4] pyridazine[1,2-a] [1,3,5]triazine 9 carboxylate [Compound 18A]",A (a CPE inhibition effect of 5% or more)
16,"CCOC(=O)[C@@H]1CCC2=C3N(Cc4ccccc4)C(=O)N(Cc4ccccc4)C(=O)N3[C@H](Cc3ccccc3)C(=O)N21 [Compound 1B, Ethyl (6R,9S)-1,3,6-tribenzyl-2,4,7-trioxo-1,3,4,6,7,9,10,11-octahydro-2H-pyrrolo[2',1':3,4]pyridazine[1,2-a][1,3,5]triazine-9-carboxylate]",C (less than 1%)
17,"(6R,9S,11aR,11bR)-1,3-Dibenzyl-11b-hydroxy-6-(4 -methoxybenzyl)-N-(naphthalen-2-ylmethyl)-2,4,7-trioxodecahydro-2H-pyrrolo[2',1':3,4] pyridazino[1,2-a][1.3.5] triazine-9-carboxamide [Compound 6D]",B (a CPE inhibition effect of less than 5% but 1% or more)

# Same assay, conditions: Severe acute respiratory syndrome coronavirus 2, VeroE6/TMPRSS2, 72 h, read-out: Anti SARS-CoV-2 activity
row,Molecule,inhibition at 10 µM [%]
1,"O=C1[C@@H](Cc2ccccc2)N2C(=O)N(Cc3ccccc3)C(=O)N(Cc3ccccc3)C2=C2CCCN12 [Compound 9B, (R) 1.3.6-Tribenzyl-1,9,10,11-tetrahydro-2H-pyrrolo[2',1':3,4] pyridazino[1,2-a][1,3,5]triazine-2,4,7(3H,6H)-trione]",< 1
2,"O=C1C(Cc2ccccc2)N2C(=O)N(Cc3ccccc3)C(=O)N(Cc3ccccc3)C2=C2C[C@@H](OCc3ccccc3)CN12 (stereo partly drawn) [Compound 15B, (6R,10R)-1,3,6-tribenzyl-10-(benzyloxy)-1,9,10,11-tetrahydro-2H-pyrrolo[2',1':3,4] pyridazino[1,2-a][1,3,5] triazine-2,4,7(3H,6H)-trione]",< 1
3,"CNC(=O)[C@@H]1CC[C@H]2N1C(=O)[C@@H](Cc1ccccc1)N1C(=O)N(Cc3cccs3)C(=O)N(Cc3cccs3)[C@]21O [Compound 18F, (6R,9S,11aR,11bR)-6-benzyl-11b-hydroxy-N-methyl-2,4,7-trioxo-1,3-bis(thiophen-2-ylmethyl)decahydro-2H-pyrrolo [2',1':3,4]pyrazino[1,2-a][1,3,5]triazine-9-carboxamide]",1 to 5
4,"CC[C@@]1(C(C)C)C(=O)N2[C@H](C(=O)NCc3ccc4ccccc4c3)CC[C@@H]2[C@@]2(O)N(Cc3ccccc3)C(=O)N(Cc3ccccc3)C(=O)N21 [Compound 29D, (6R,9S,11aR,11bR)-1,3-Dibenzyl-6-ethyl-11b-hydroxy-6-isopropyl-N-(naphthalen-2-ylmethyl)-2,4,7-trioxodecahydro-2H-pyrrolo[2',1':3,4] pyrazino[1,2-a][1,3,5] triazine-9-carboxamide]",> 5
5,"CCOC(=O)[C@H]1CC[C@@H]2N1C(=O)[C@H](C(C)C)N1C(=O)N(Cc3ccccc3)C(=O)N(Cc3ccccc3)[C@@]21O [Compound 26A, Ethyl (6S,9R,11aS,11bS)-1,3-dibenzyl-11b-hydroxy-6-isopropyl-2,4,7-trioxodecahydro-2H-pyrrolo[2',1':3,4]pyrazi no[1,2-a][1,3,5] triazine-9-carboxylate]",> 5
6,"CCOC(=O)[C@@H]1CCC2=C3N(Cc4ccccc4)C(=O)N(Cc4ccccc4)C(=O)N3[C@H](C(C)C)C(=O)N21 [Compound 3B, Ethyl (6R.9S) 1,3-dibenzyl 6 isopropyl-2.4.7 trioxo-1,3,4,6,7,9,10,11-octahydro 2H-pyrrolo[2',1':3.4]pyrazi no[1,2 a][1,3,5] triazine 9 carboxylate]",> 5
7,"CC(C)[C@@H]1C(=O)N2[C@H](C(=O)NCc3cnc4ccccc4c3)CC[C@@H]2[C@@]2(O)N(Cc3ccco3)C(=O)N(Cc3ccco3)C(=O)N12 [Compound 28F, (6R,9S,11aR,11bR)-1,3-bis(2-furylmethyl)-11b-hydroxy-6-isopropyl-2,4,7-trioxo-N-(3-quinolylmethyl)decahydro-2H-pyrrolo[2',1':3,4]pyrazino[1,2-a][1,3,5]triazine-9-carboxamide]",> 5
